Results on five compounds are retold here after article PMC12409542, “Synthesis and Computational Evaluation of N‑Acetyl-Derived Schiff Bases Incorporating 1,2,4-Triazoles for Dual Inhibition of Prostate Cancer Cells and Carbonic Anhydrases” (ACS Omega, 2025).

For one experiment, the system named is DU145 cells. As to the kind of experiment: Cell viability assay (CVDK-8), DU145 cells. It counts as cell-based, human. As to conditions: for effect on viability of cancer cells (in words): DU145, 1, 10 and 100 μM, 24 h; for IC50: Homo sapiens, DU-145, viability of DU145 cells, 24 h treatment, CVDK-8; for selectivity indices (SI) PNT1a IC50/DU145 IC50: ratio PNT1a IC50/DU145 IC50, 24 h. As to the method:
(§1) In this research, the inhibitory effects of the compounds under investigation on cell viability were assessed using two distinct human cell lines: specifically, the DU145 cell line, representative of prostate cancer, and the PNT1a cell line, which serves as a model for normal human prostate epithelial cells. Cells were routinely cultured in RPMI-1640 medium supplemented with 10% fetal bovine serum, 1% penicillin/streptomycin (Gibco), and 1% L-glutamine. All cells were maintained in a 5% CO2 humidified incubator at 37 °C.
(§2) Effects of all compounds synthesized in this study on the viability of PNT1a and DU145 cells were analyzed using the Cell Viability Detection Kit-8 (CVDK-8, Ecotech Biotechnology, Erzurum, Turkey). In brief, cells were seeded at a concentration of 3 × 10^3 cells per well within 100 μL medium in 96 well plates. Then, cells were treated with compounds at concentrations of […] for 24 h. After treatment with the test compounds, the medium was removed and fresh RPMI-1640 medium containing 1/10 CVDK- 8 reagent was added to each well, and plates were incubated for 3 h at 37 °C protected from light. After the incubation period, optical densities were measured using Epoch spectrophotometer at 450 nm. For cell culture, experiments were performed in triplicate, and data were analyzed by t tests.

The next experiment relates to PNT1a cells. Put plainly: Cell viability assay (CVDK-8), PNT1a cells. The class given is cell-based. As to conditions: Homo sapiens, viability of PNT1a normal prostate epithelial cells, 24 h treatment. The method, then:
as §1, §2

The target of another experiment is hCA II (Homo sapiens, UniProt P00918). As to the kind of experiment: hCA II inhibition, spectrophotometric esterase method (p-nitrophenyl acetate). As to conditions: p-nitrophenyl acetate substrate, 348 nm; for Ki: read-out: K i (μM) hCA II. It counts as biochemical. As to the method: (§3) In this study, Sepharose-4B L-Tyrosine sulfanilamide affinity chromatography was employed to purify both CA isozymes in a single phase. A previous process was used to manufacture the column chemical material for affinity chromatography containing Sepharose-4B-L-Tyrosine-Sulfanilamide. As previously shown, the protein molecules’ flow in the column eluates was measured spectrophotometrically at 280 nm. […] The substrate used, p-nitrophenyl acetate, was enzymatically converted by both isoenzymes into p-nitrophenolate ions.

Another experiment addresses hCA I (Homo sapiens, UniProt P00915). Put plainly: hCA I inhibition, spectrophotometric esterase method (p-nitrophenyl acetate). As to conditions: p-nitrophenyl acetate substrate, 348 nm; for Ki: read-out: K i (μM) hCA I. The class given is biochemical. The method, then:
as §3

Where only a bound is given, the exact number is not on record here.

hCA I, sequence (P00915 whole entry): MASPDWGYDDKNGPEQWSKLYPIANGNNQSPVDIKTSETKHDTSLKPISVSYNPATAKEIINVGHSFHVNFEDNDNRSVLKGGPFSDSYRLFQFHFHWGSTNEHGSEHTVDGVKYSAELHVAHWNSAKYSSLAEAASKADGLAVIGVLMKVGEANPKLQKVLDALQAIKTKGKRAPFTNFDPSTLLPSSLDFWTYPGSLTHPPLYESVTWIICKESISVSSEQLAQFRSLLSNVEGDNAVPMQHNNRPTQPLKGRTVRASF

Consider `CC(=O)n1nc(Cc2ccc(Cl)cc2)n(N=Cc2cccc(OS(=O)(=O)c3ccc(C)cc3)c2)c1=O` [6e, 3-[((1-Acetyl-3-p-chlorobenzyl-5-oxo-1,5-dihydro-4H-1,2,4-triazol-4-yl)-imino)-methyl]-phenyl-4-methylbenzenesulfonate], for which, in the experiment on DU145 cells, the “effect on viability of cancer cells (in words)” value (“effect on viability” below) is given as “decreased the viability of cancer cells in a dose-dependent manner”, the concentration for half-maximal inhibition (IC50) (usually the concentration needed to halve the response being measured) is above 100 µM and the “selectivity indices (SI) PNT1a IC50/DU145 IC50” value (“selectivity indices” for short) was found to be 5.23. The same compound had a 50% inhibitory concentration (IC50) in the experiment with PNT1a cells above 100 µM. At hCA II, the half-maximal inhibitory concentration (IC50) was 16.8 µM and the Ki is 18.1 ± 2.47 µM. Moreover, on hCA I, the 50% inhibitory concentration (IC50) is 12.3 µM and the Ki was determined as 14.2 ± 1.1 µM.

As to `CC(=O)n1nc(Cc2ccc(C)cc2)n(N=Cc2cccc(OS(=O)(=O)c3ccc(C)cc3)c2)c1=O` [6d, 3-[((1-Acetyl-3-p-methylbenzyl-5-oxo-1,5-dihydro-4H-1,2,4-triazol-4-yl)-imino)-methyl]-phenyl-4-methylbenzenesulfonate], the “effect on viability” value with DU145 cells was “did not suppress the viability of cancer cells in low concentrations”. For the same compound, the IC50 with DU145 cells is 49.8 ± 11.1 µM; with PNT1a cells, above 100 µM; against hCA II, 10.6 µM; against hCA I, 7.12 µM. The “selectivity indices” value in the experiment with DU145 cells was determined as 2.28. In addition, the Ki stood at 11.7 ± 1.01 µM at hCA II and 9.26 ± 0.88 µM at hCA I.

Turning to `CC(=O)n1nc(C)n(N=Cc2cccc(OS(=O)(=O)c3ccc(C)cc3)c2)c1=O` [6a, 3-[((1-Acetyl-3-methyl-5-oxo-1,5-dihydro-4H-1,2,4-triazol-4-yl)-imino)-methyl]-phenyl-4-methylbenzenesulfonate], in the experiment with DU145 cells, the “effect on viability” value is “decreased the viability of cancer cells in a dose-dependent manner”, it took 73.2 ± 11.5 µM to reach half-maximal inhibition (IC50) and the “selectivity indices” value amounted to 6.74. The compound further showed a 50% inhibitory concentration (IC50) with PNT1a cells above 100 µM. On hCA II, the IC50 was determined as 15.3 µM and the Ki was found to be 19.7 ± 2.48 µM. Moreover, on hCA I, 11.4 µM corresponded to half-maximal inhibition (IC50) and the Ki was 14 ± 1.15 µM.

Consider `CCc1nn(C(C)=O)c(=O)n1N=Cc1cccc(OS(=O)(=O)c2ccc(C)cc2)c1` [6b, 3-[((1-Acetyl-3-ethyl-5-oxo-1,5-dihydro-4H-1,2,4-triazol-4-yl)-imino)-methyl]-phenyl-4-methylbenzenesulfonate], for which, at hCA II, the midpoint of inhibition, the IC50, lay at 18.4 µM and the Ki was 21.9 ± 3.48 µM. In addition, on hCA I, the IC50 turned out to be 13.7 µM and the Ki stood at 16.7 ± 2.14 µM.

As for `CC(=O)n1nc(Cc2ccccc2)n(N=Cc2cccc(OS(=O)(=O)c3ccc(C)cc3)c2)c1=O` [6c, 3-[((1-Acetyl-3-benzyl-5-oxo-1,5-dihydro-4H-1,2,4-triazol-4-yl)-imino)-methyl]-phenyl-4-methylbenzenesulfonate], in the experiment on DU145 cells, the “effect on viability” value is “did not suppress the viability of cancer cells in low concentrations”, the IC50 was above 100 µM and the “selectivity indices” value turned out to be 1.22. The same compound had a 50% inhibitory concentration (IC50) in the experiment on PNT1a cells above 100 µM. For the same compound, at hCA II, half-maximal inhibition (IC50) was put at 14.5 µM and the Ki was 17.3 ± 2.41 µM. Also, on hCA I, the IC50 came to 10.2 µM and the Ki is 13.1 ± 1.02 µM.
